ChEMBL document CHEMBL1158611, “Trichoderins, novel aminolipopeptides from a marine sponge-derived Trichoderma sp., are active against dormant mycobacteria” (2010)
Converted amounts (≈) assume the structure as drawn. *1 amine or outer side, *2 acyl side, *3 side chain or, on linkers, in order; H or OH if unused. Where a SMILES comes first, the peptide text is derived from it. [ ]: non-standard residue; d: D form. The star is where a group is joined. X2 = CCC(=O)C[C@@H](O)C[C@@H](C)C[C@H](N[*:1])C(=O)[*:2]; X1 = CCC(=O)/C=C/C[C@@H](C)C[C@H](N[*:1])C(=O)[*:2]; Alaψ(CH2NMeCH2CH2OH) = C[C@@H](CN(C)CCO)N*; Decanoyl(2R-Me) = CCCCCCCC[C@@H](C)C(=O)*; Aib = CC(C)(N)C(=O)O

Tests used:
Assay type in all cases: functional
[1] = tested on: Mycobacterium tuberculosis; assay: Antimycobacterial activity against Mycobacterium tuberculosis H37Rv under aerobic condition
[2] = tested on: Mycolicibacterium smegmatis; assay: Antimycobacterial activity against Mycobacterium smegmatis under dormancy-inducing hypoxic condition
[3] = tested on: Mycobacterium tuberculosis; assay: Antimycobacterial activity against Mycobacterium tuberculosis H37Rv under dormancy-inducing hypoxic condition
[4] = tested on: Mycolicibacterium smegmatis; assay: Antimycobacterial activity against Mycobacterium smegmatis under aerobic condition

SMILES | MIC [1] [µg/mL] | MIC [2] [µg/mL] | MIC [3] [µg/mL] | MIC [4] [µg/mL]
CCCCCCCC[C@@H](C)C(=O)N1CCC[C@H]1C(=O)N[C@@H](C[C@H](C)C[C@H](O)CC(=O)CC)C(=O)NC(C)(C)C(=O)NC(C)(C)C(=O)N[C@H](C(=O)N[C@H](C(=O)NC(C)(C)C(=O)NC(C)(C)C(=O)N[C@@H](C)CN(C)CCO)C(C)C)C(C)C [TRICHODERIN B] ({Decanoyl(2R-Me)}-P[X2][Aib][Aib]VV[Aib][Aib]-{Alaψ(CH2NMeCH2CH2OH)}) | 0.13 (≈ 0.113 µM) | 0.63 (≈ 0.548 µM) | 0.13 (≈ 0.113 µM) | 0.63 (≈ 0.548 µM)
CCCCCCCC[C@@H](C)C(=O)N1CCC[C@H]1C(=O)N[C@@H](C[C@H](C)C[C@H](O)CC(=O)CC)C(=O)NC(C)(C)C(=O)NC(C)(C)C(=O)N[C@H](C(=O)N[C@H](C(=O)NC(C)(C)C(=O)NC(C)(C)C(=O)N[C@@H](C)CN(C)CCO)C(C)C)[C@@H](C)CC [TRICHODERIN A] ({Decanoyl(2R-Me)}-P[X2][Aib][Aib]IV[Aib][Aib]-{Alaψ(CH2NMeCH2CH2OH)}) | 0.12 (≈ 0.103 µM) | 0.1 (≈ 0.0859 µM) | 0.12 (≈ 0.103 µM) | 0.1 (≈ 0.0859 µM)
NNC(=O)c1ccncc1 [ISONIAZID] | 0.05 (≈ 0.365 µM) | 25 (≈ 182 µM) | > 100 | 2.5 (≈ 18.2 µM)
CCCCCCCC[C@@H](C)C(=O)N1CCC[C@H]1C(=O)N[C@@H](C[C@H](C)C/C=C/C(=O)CC)C(=O)NC(C)(C)C(=O)NC(C)(C)C(=O)N[C@H](C(=O)N[C@H](C(=O)NC(C)(C)C(=O)NC(C)(C)C(=O)N[C@@H](C)CN(C)CCO)C(C)C)[C@@H](C)CC [TRICHODERIN A1] ({Decanoyl(2R-Me)}-P[X1][Aib][Aib]IV[Aib][Aib]-{Alaψ(CH2NMeCH2CH2OH)}) | 2 (≈ 1.75 µM) | 1.56 (≈ 1.36 µM) | 2 (≈ 1.75 µM) | 1.56 (≈ 1.36 µM)
